Experimental data as given in ChEMBL document CHEMBL1156048, “Design and optimisation of selective serotonin re-uptake inhibitors with high synthetic accessibility: part 2” (Bioorg Med Chem Lett, 2009).

Assays:
Assay type in all cases: cell-based
[1] = target: Sodium-dependent noradrenaline transporter (Homo sapiens, UniProt P23975); assay: Inhibition of noradrenaline reuptake at human noradrenaline transporter expressed in HEK293 cells after 15 mins by scintillation counting
[2] = target: Sodium-dependent dopamine transporter (Homo sapiens, UniProt Q01959); assay: Inhibition of dopamine reuptake at human dopamine transporter expressed in HEK293 cells after 5 mins by scintillation counting
Sodium-dependent dopamine transporter, sequence (Q01959 whole entry): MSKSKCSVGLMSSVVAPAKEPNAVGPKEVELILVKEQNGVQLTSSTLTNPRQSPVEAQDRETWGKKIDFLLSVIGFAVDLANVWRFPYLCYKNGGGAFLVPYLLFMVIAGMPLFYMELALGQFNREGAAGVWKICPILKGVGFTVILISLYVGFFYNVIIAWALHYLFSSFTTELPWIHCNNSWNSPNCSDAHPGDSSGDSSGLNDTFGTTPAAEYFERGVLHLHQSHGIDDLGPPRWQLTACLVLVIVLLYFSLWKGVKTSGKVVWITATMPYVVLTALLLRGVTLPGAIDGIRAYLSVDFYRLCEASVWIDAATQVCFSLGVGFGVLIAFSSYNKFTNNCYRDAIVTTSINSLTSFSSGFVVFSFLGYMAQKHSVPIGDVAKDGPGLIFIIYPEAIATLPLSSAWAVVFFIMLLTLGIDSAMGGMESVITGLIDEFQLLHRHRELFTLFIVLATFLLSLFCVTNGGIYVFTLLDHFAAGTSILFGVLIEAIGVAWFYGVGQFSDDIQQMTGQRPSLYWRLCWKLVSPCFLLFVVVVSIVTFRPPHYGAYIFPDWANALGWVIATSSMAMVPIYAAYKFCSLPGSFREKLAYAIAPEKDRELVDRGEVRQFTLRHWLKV

[3] = target: Sodium-dependent serotonin transporter (Homo sapiens, UniProt P31645); assay: Inhibition of serotonin reuptake at human serotonin transporter expressed in HEK293 cells after 5 mins by scintillation counting
Sodium-dependent serotonin transporter, sequence (P31645 whole entry): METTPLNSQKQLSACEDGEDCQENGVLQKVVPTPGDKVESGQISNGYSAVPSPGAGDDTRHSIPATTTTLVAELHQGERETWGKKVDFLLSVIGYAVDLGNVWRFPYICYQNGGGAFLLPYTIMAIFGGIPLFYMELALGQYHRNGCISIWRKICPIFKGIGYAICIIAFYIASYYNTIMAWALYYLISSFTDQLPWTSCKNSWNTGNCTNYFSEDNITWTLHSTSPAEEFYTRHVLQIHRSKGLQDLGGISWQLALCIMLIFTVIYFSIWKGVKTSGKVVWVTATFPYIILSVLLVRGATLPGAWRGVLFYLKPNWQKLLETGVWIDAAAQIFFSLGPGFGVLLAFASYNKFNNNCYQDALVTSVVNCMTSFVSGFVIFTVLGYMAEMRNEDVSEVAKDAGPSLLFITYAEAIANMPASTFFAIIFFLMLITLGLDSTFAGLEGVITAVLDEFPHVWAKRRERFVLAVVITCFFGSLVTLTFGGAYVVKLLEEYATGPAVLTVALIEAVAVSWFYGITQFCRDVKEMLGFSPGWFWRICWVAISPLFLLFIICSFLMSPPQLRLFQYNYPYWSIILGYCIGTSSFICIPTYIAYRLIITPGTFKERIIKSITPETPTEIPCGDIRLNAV

[4] = target: Voltage-gated inwardly rectifying potassium channel KCNH2 (Homo sapiens, UniProt Q12809); assay: Displacement of [3H]dofetilide from human ERG expressed in HEK293 cells
Voltage-gated inwardly rectifying potassium channel KCNH2, sequence (Q12809 whole entry): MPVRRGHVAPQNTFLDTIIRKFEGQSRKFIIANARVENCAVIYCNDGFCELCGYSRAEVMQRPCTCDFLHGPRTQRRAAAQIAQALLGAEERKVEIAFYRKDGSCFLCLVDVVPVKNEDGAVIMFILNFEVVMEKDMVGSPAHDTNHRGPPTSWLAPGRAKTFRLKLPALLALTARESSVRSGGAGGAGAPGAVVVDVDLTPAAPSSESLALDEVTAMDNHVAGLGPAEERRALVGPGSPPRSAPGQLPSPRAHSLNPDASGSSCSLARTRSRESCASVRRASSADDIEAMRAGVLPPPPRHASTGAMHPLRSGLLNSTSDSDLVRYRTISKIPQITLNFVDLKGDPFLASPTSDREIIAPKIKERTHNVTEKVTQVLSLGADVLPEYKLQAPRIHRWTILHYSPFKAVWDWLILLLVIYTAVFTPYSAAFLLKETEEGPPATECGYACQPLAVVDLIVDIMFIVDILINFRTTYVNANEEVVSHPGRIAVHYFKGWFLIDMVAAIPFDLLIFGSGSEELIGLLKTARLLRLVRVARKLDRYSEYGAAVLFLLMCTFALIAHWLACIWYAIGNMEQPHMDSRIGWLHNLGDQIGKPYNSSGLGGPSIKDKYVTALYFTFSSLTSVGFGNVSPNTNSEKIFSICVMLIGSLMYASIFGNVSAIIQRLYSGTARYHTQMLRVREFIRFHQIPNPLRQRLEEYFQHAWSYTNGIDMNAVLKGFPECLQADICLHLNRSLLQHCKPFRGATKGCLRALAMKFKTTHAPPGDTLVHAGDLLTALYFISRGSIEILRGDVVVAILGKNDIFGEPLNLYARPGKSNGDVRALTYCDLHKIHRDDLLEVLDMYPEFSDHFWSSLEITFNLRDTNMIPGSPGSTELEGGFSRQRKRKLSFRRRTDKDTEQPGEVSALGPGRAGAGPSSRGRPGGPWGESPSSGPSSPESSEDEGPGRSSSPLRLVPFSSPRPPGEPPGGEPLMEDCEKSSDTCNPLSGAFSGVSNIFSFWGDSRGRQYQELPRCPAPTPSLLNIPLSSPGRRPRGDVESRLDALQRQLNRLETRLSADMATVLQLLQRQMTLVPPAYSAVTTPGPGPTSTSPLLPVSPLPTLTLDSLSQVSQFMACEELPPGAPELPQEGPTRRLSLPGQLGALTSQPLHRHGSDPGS

Sodium-dependent noradrenaline transporter, sequence (P23975 whole entry): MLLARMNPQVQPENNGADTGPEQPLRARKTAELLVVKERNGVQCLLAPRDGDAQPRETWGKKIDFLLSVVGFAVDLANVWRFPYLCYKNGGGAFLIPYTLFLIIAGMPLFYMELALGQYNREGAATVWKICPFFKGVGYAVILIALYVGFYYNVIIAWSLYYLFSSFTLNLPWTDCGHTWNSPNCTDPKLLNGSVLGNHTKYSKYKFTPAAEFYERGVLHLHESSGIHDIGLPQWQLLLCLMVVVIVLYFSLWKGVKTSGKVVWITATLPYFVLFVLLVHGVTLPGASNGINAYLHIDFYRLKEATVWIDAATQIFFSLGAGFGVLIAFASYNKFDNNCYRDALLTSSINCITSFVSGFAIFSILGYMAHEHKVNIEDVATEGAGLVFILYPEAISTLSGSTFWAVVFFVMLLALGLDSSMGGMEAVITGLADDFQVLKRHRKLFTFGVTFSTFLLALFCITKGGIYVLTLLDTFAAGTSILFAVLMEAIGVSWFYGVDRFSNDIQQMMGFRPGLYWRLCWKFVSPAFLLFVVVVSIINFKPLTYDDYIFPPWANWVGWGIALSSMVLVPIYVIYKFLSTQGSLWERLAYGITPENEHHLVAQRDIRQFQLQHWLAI

| Structure (SMILES) | IC50 [1] [nM] | IC50 [2] [µM] | IC50 [3] [nM] | Ki [4] [µM] |
| --- | --- | --- | --- | --- |
| Cc1c(C(=O)N(C(C)C)[C@@H]2CCNC2)ccc(Cl)c1Cl | 5700 | > 40 | 7 | – |
| CCN(C(=O)c1ccc(Cl)c(Cl)c1C)[C@@H]1CCNC1 | 17400 | > 40 | 10 | – |
| CC(C)N(C(=O)c1ccc2ccccc2c1)[C@@H]1CCNC1 | 7500 | > 14 | 15 | – |
| Cc1c(C(=O)N(C)[C@@H]2CCNC2)ccc(Cl)c1Cl | – | – | 58 | – |
| CCC(=O)N(Cc1ccc2ccccc2c1)[C@@H]1CCNC1 | 224 | 0.266 | 2.4 | – |
| c1cnc(N(Cc2ccc3ccccc3c2)C2CCNCC2)nc1 | 1200 | 1.3 | 10 | – |
| CCC(=O)N(Cc1ccc2ccccc2c1)C1CCNCC1 | 1300 | 0.339 | 1 | 12 |
| O=C(c1ccc2ccccc2c1)N(C1CCCC1)[C@@H]1CCNC1 | 677 | 7.4 | 12 | – |
| CC(=O)N(Cc1ccc2ccccc2c1)[C@@H]1CCNC1 | 726 | > 12 | 5.2 | – |
| O=C(c1ccc2ccccc2c1)N(C1CCC1)[C@@H]1CCNC1 | 6000 | 5.8 | 9 | – |
| CS(=O)(=O)N(Cc1ccc2ccccc2c1)C1CCNCC1 | 2500 | 4.9 | 3.5 | 3.2 |
| CN(C(=O)c1ccc(Cl)c(Cl)c1)[C@@H]1CCNC1 | – | – | > 400 | – |
| c1ccc2cc(COC3CCNCC3)ccc2c1 [LITOXETINE] | 1400 | 6.7 | 5.9 | – |
| O=C(NC1CCNCC1)c1ccc2ccccc2c1 | – | – | > 400 | – |
| CC(C)CN(C(=O)c1ccc2ccccc2c1)[C@@H]1CCNC1 | 1200 | – | 5 | 7 |

The remaining compounds from weak to strong by IC50 [3], led by results:

| IC50 [1] [nM] | IC50 [2] [µM] | IC50 [3] [nM] | Structure (SMILES) | Ki [4] [µM] |
| --- | --- | --- | --- | --- |
| > 40000 | > 40 | 28.3 | CCCN(C(=O)c1ccc2ccccc2c1)C1CCNCC1 | – |
| 7000 | > 68 | 17 | CS(=O)(=O)N(Cc1ccc2ccccc2c1)[C@@H]1CCNC1 | 4.2 |
| 357 | > 28 | 15 | Cc1c(C(=O)N(CC(C)(C)C)[C@H]2CCNC2)ccc(Cl)c1Cl | – |
| > 40000 | > 40 | 10 | O=C(c1ccc2ccccc2c1)N(C1CCC1)C1CCNCC1 | > 10 |
| 735 | > 28 | 4.6 | Cc1c(CN([C@@H]2CCNC2)S(C)(=O)=O)ccc2cc(F)ccc12 | 1.6 |
| 8900 | 1.5 | 4.5 | CC(=O)N(Cc1ccc2ccccc2c1)C1CCNCC1 | > 20 |
| 370 | 2.8 | 3.5 | CS(=O)(=O)N(Cc1ccc2ccccc2c1)[C@H]1CCNC1 | 11 |
| 24 | 0.744 | 3 | CC(C)CN(C(=O)c1ccc2ccccc2c1)[C@H]1CCNC1 | – |
